Laboratory results taken from patent US11241437B2, “Heterocyclic compounds, preparation methods and uses thereof” (InventisBio Co., Ltd., priority 2019, dated 2022).
≈ marks a conversion by molar mass, not a printed value.

Key:
Assay type in all cases: physicochemical
[1] = Manual grinding of Form A and Form B of Compound 2; details: ground manually for 5 min
Experimental: About 10-20 mg of Compound 2 in Form A and Form B were ground manually for 5 min, respectively.

[2] = Solubility of Form A and Form B of Compound 2 in bio-relevant media; details: for Solubility: 37° C.; for XRPD patterns of remaining solids: FaSSIF and water, at 24 hours; for solubility at 0.5 h / solubility at 2 h / solubility at 24 h: 37 °C, thermodynamic from solid
Experimental: Solubility in Bio-relevant Media: Form A and Form B was added into SGF, FeSSIF, FaSSIF and water, respectively. The suspensions were kept shaking at 37° C. with 200 rpm for 24 hours. At 0.5 h, 2 h and 24 h, suspensions were filtered and drug concentrations of filtrates were analyzed by HPLC. pH of filtrates was measured at each time point. The remaining solids at 24 hours were characterized by XRPD.

[3] = Solubility of Form A of Compound 2 in organic solvents; details: for Solubility: organic solvent or mixture
[4] = Dynamic moisture sorption analysis (DVS) of Form B of Compound 2
Experimental: Method 2. Used for studies with solid state of Compound 2. Moisture sorption/desorption data was collected on IGAsorp Dynamic Moisture Sorption Analyzer. The sample was placed into a tarred sample chamber and automatically weighed. The sample was dried at 50° C. until the humidity was less than 0.3% and cooled to 25° C. The instrument parameters were set as given below.

[5] = Solid state stability of Form B of Compound 2
Experimental: Method 2. HPLC analysis was performed with an Agilent HPLC 1260 series instrument. A representative HPLC method used for purity, solubility and stability study for Compound 2 analysis.
Solid State Stability of Form B: About 10 mg of Form B was open placed at 40° C./75% RH and 60° C. for 7 days and at 25° C./92.5% RH for 10 days, respectively. Prepare samples in duplicate (n=2) per condition. The solids were analyzed by XRPD and HPLC (only for 40° C./75% RH and 60° C.).

[6] = Solubility of amorphous Compound 1 in solvents (anti-solvent precipitation screening); details: RT
[7] = Solubility of Compound 1 solid forms in bio-relevant media and water; details: FaSSIF
Experimental: Solubility Studies: Solubility of Form IV was tested in three bio-relevant media (Simulated Gastric Fluid (SGF), Fasted State Simulated Intestinal Fluid (FaSSIF), and Fed State Simulated Intestinal Fluid (FeSSIF)) and water. […] Form IV (˜10 mg) was weighed into 2 mL of four media to make suspensions respectively, and about 10 mg of the amorphous starting material was also added into 2 mL of FaSSIF. Then all suspensions were shaken at 37° C. with 200 rpm for up to 24 hours. At 0.5, 2 and 24 hours, about 0.7 mL of each suspension was filtered. The filtrate was analyzed by HPLC and pH meter, and the residual solids were also checked by XRPD at 24 hours.

[8] = pKa of Compounds 1 and 2
[9] = Competitive slurry (interconversion) of Form A, Form B and Form C of Compound 2; details: RT or 50° C.
Experimental: Interconversion Studies: Competitive slurry of Form A, Form B and Form C was performed in acetone and acetone/water (1/4) at RT or 50° C., with details shown below.

[10] = Interconversion studies of solid forms of Compound 1 (slurry)
Experimental: Interconversion Studies: Equal amounts (˜7 mg) of Form I, II and III were mixed together and then suspended in 0.5 mL of different solvents at room temperature or 50° C., respectively. Residual solids were collected by filtration and characterized at appropriate time. Additionally, Form IV (˜12 mg) was slurried in 0.5 ml, water or MeOH/water (1/4) at RT or 50° C. for 3 days. Residual solids were collected by filtration and analyzed by XRPD.

[11] = Polymorph characterization summary of Compound 1 forms (form stability)

## C=CC(=O)N1C[C@H](C)N(c2nc(=O)n(-c3c(C4CC4)ncnc3C3CC3)c3nc(-c4c(N)cccc4F)c(F)cc23)C[C@H]1C (single isomer, unassigned) [Form A]
[1]
  Crystal form after grinding: unchanged
[2]; FaSSIF (pH 6.5), 0.5 h
  Solubility: 19 µg/mL (≈ 31.7 µM)
[2]; FaSSIF (pH 6.5), 2 h
  Solubility: 29 µg/mL (≈ 48.4 µM)
[2]; FaSSIF (pH 6.5), 24 h
  Solubility: 24 µg/mL (≈ 40.1 µM)
[2]; FeSSiF (pH 5.0), 0.5 h
  Solubility: 41 µg/mL (≈ 68.5 µM)
[2]; FeSSiF (pH 5.0), 2 h
  Solubility: 45 µg/mL (≈ 75.2 µM)
[2]; FeSSiF (pH 5.0), 24 h
  Solubility: 42 µg/mL (≈ 70.2 µM)
[2]; SGF (pH 1.2), 0.5 h
  Solubility: 67 µg/mL (≈ 112 µM)
[2]; SGF (pH 1.2), 2 h
  Solubility: 72 µg/mL (≈ 120 µM)
[2]; SGF (pH 1.2), 24 h
  Solubility: 170 µg/mL (≈ 284 µM)
[2]; SGF, FeSSIF
  XRPD patterns of remaining solids: unchanged
[2]; Water, 0.5 h
  Solubility: 15 µg/mL (≈ 25.1 µM)
[2]; Water, 2 h
  Solubility: 25 µg/mL (≈ 41.8 µM)
[2]; Water, 24 h
  Solubility: 43 µg/mL (≈ 71.8 µM)
[3]
  Solubility in other solvents: practically insoluble
[3]; DCM, read-out: Solubility in DCM
  Solubility: > 92000 µg/mL
[3]; MeOH, butanone, THF, ACN, acetone, read-out: Solubility in MeOH, butanone, THF, ACN and acetone
  Solubility: 20000 to 33000 µg/mL (≈ 33400 to 55100 µM)

## C=CC(=O)N1C[C@H](C)N(c2nc(=O)n(-c3c(C4CC4)ncnc3C3CC3)c3nc(-c4c(N)cccc4F)c(F)cc23)C[C@H]1C (single isomer, unassigned) [Form B]
[4]
  Crystal form after DVS testing: without changing of crystal form
[4]; 25° C.
  Hygroscopicity (DVS): slightly hygroscopic
[4]; at 0-80% RH, 25° C.
  Water absorbed (DVS): ~0.84%
[1]
  Crystal form after grinding: crystallinity of Form B became weak
[5]; 25° C./92.5% RH, After 10 d
  XRPD: Unchanged
[5]; 40° C./75% RH
  Purity-7 d: 98.97 Area %
[5]; 40° C./75% RH, After 7 d
  XRPD: Unchanged
[5]; 60° C. for 7 days
  Purity decrease: 0.16%
[5]; 60° C.
  Purity-7 d: 98.82 Area %
[5]; 60° C., After 7 d
  XRPD: Unchanged
[5]; initial, before storage
  Initial Purity: 98.98 Area %
[2]; FaSSIF, pH 6.5, fassif, FaSSIF (pH 6.5), 0.5 h
  solubility at 0.5 h: 16 µg/mL (≈ 26.7 µM)
[2]; FaSSIF, pH 6.5, fassif, FaSSIF (pH 6.5), 2 h
  solubility at 2 h: 51 µg/mL (≈ 85.2 µM)
[2]; FaSSIF, pH 6.5, fassif, FaSSIF (pH 6.5), 24 h
  solubility at 24 h: 18 µg/mL (≈ 30.1 µM)
[2]; FeSSIF, pH 5, fessif, FeSSiF (pH 5.0), 0.5 h
  solubility at 0.5 h: 44 µg/mL (≈ 73.5 µM)
[2]; FeSSIF, pH 5, fessif, FeSSiF (pH 5.0), 2 h
  solubility at 2 h: 43 µg/mL (≈ 71.8 µM)
[2]; FeSSIF, pH 5, fessif, FeSSiF (pH 5.0), 24 h
  solubility at 24 h: 37 µg/mL (≈ 61.8 µM)
[2]; SGF (pH 1.2), 24 h
  Solubility: 56 µg/mL (≈ 93.5 µM)
[2]; SGF, pH 1.2, simulated gastric fluid, SGF (pH 1.2), 0.5 h
  solubility at 0.5 h: 60 µg/mL (≈ 100 µM)
[2]; SGF, pH 1.2, simulated gastric fluid, SGF (pH 1.2), 2 h
  solubility at 2 h: 58 µg/mL (≈ 96.9 µM)
[2]; SGF, FeSSIF
  XRPD patterns of remaining solids: unchanged
[2]; Water, 24 h
  Solubility: 19 µg/mL (≈ 31.7 µM)
[2]; water, 0.5 h
  solubility at 0.5 h: 21 µg/mL (≈ 35.1 µM)
[2]; water, 2 h
  solubility at 2 h: 20 µg/mL (≈ 33.4 µM)

## C=CC(=O)N1C[C@H](C)N(c2nc(=O)n(-c3c(C4CC4)ncnc3C3CC3)c3nc(-c4c(N)cccc4F)c(Cl)cc23)C[C@H]1C [Amorphous material]
[6]
  Solubility in MTBE, water and heptane: low solubility
  Solubility in most solvents: high solubility
[7]; 37° C., 0.5 h
  Solubility: 302 µg/mL (≈ 491 µM)
[7]; 37° C., 2 h
  Solubility: 263 µg/mL (≈ 428 µM)
[7]; 37° C., 24 h
  Solubility: 283 µg/mL (≈ 460 µM)
  XRPD-24 h of residual solids: unchanged
[7]; time point not stated, listed as amorphous starting material
  Solubility in FaSSIF: 300 µg/mL (≈ 488 µM)

## C=CC(=O)N1C[C@H](C)N(c2nc(=O)n(-c3c(C4CC4)ncnc3C3CC3)c3nc(-c4c(N)cccc4F)c(Cl)cc23)C[C@H]1C [Compound 1]
[8]
  pKa: ~3

## C=CC(=O)N1C[C@H](C)N(c2nc(=O)n(-c3c(C4CC4)ncnc3C3CC3)c3nc(-c4c(N)cccc4F)c(F)cc23)C[C@H]1C [Compound 2]
[8]
  pKa: ~3

## C=CC(=O)N1C[C@H](C)N(c2nc(=O)n(-c3c(C4CC4)ncnc3C3CC3)c3nc(-c4c(N)cccc4F)c(F)cc23)C[C@H]1C [Form A, Form B and Form C]
[9]; non-aqueous solvent (acetone), after 1 day
  Form after competitive slurry: completely converted to Form B
[9]; solvent-aqueous solution (acetone/water 1/4), after 7 days
  Form after competitive slurry: showed tendency to convert to Form B

## C=CC(=O)N1C[C@H](C)N(c2nc(=O)n(-c3c(C4CC4)ncnc3C3CC3)c3nc(-c4c(N)cccc4F)c(Cl)cc23)C[C@H]1C [Form I, II and III]
[10]; EA/MTBE (1/4), 50° C., 3 days
  XRPD of wet cake: Form IV
[10]; EA/MTBE (1/4), RT, 3 days
  XRPD of wet cake: Form IV
[10]; IPA, 50° C., 4 days
  XRPD of wet cake: Form IV
[10]; IPA, RT, 3 days
  XRPD of wet cake: Pattern 1
[10]; MeOH/Water (1/4), 50° C., 3 days
  XRPD of wet cake: Form IV
[10]; MeOH/Water (1/4), RT, 3 days
  XRPD of wet cake: Form II

## C=CC(=O)N1C[C@H](C)N(c2nc(=O)n(-c3c(C4CC4)ncnc3C3CC3)c3nc(-c4c(N)cccc4F)c(Cl)cc23)C[C@H]1C [Form III]
[11]
  Stability of the solid form: not stable

## C=CC(=O)N1C[C@H](C)N(c2nc(=O)n(-c3c(C4CC4)ncnc3C3CC3)c3nc(-c4c(N)cccc4F)c(Cl)cc23)C[C@H]1C [Form II]
[11]
  Stability of the solid form: not stable
